Measurements reported in patent US20100003246A1, “Novel heterocyclic compounds and uses therof” (priority 2008, published 2010).

target: T1, b-Raf(V600E) (Homo sapiens, UniProt P15056, V600E); assay: Raf/Mek Amplified Luminescence Proximity Homogeneous Assay (Alpha Screen), b-Raf(V600E); assay type: biochemical; settings: mutant b-Raf(V600E), read-out: mut-b-RAF (IC50 in uM)
T1 construct: made in house
Description: Assay buffer: 50 mM Tris, pH 7.5, 15 mM MgCl2, 0.01% BSA, 1 mM DTT Stop buffer: 60 mM EDTA, 0.01% Tween20 Bead buffer: 50 mM Tris, pH 7.5, 0.01% Tween20
b-Raf(V600E), active: Recombinant in-house material biotinylated Mek, kinase dead: Recombinant in-house material Alpha Screen detection kit PerkinElmer, #6760617R Anti phospho-MEK½ Cell signaling #9121 384 well assay plates: White Greiner plates, #781207
b-Raf(V600E) approximately 4 pM c-Raf approximately 4 nM biotinylated Mek, Kinase dead approximately 10 nM
Pre-incubation time with compounds 60 min at room temperature Reaction time 1 or 3 hours at room temperature
Raf and biotinylated Mek, kinase dead, were combined at 2× final concentrations in assay buffer (50 mM Tris, pH 7.5, 15 mM MgCl2, 0.01% BSA and 1 mM DTT) and dispensed 10 μl per well in assay plates (Greiner white 384 well assay plates #781207) containing 0.5 μl of 40× of a raf kinase inhibitor test compound diluted in 100% DMSO. The plate was incubated for 60 min at room temperature.
The Raf kinase activity reaction was started by the addition of 10 μl per well of 2×ATP diluted in assay buffer. After 3 hours (bRaf(V600E)) or 1 hour (c-Raf), the reactions were stopped with the addition of 10 μl of stop reagent (60 mM EDTA). Phosphorylated product was measured using a rabbit anti-p-MEK (Cell Signaling, #9121) antibody and the Alpha Screen IgG (Protein A) detection Kit (PerkinElmer #6760617R), by the addition of 30 μL to the well of a mixture of the antibody (1:2000 dilution) and detection beads (1:2000 dilution of both beads) in bead buffer (50 mM Tris, pH 7.5, 0.01% Tween20). The additions were carried out under dark conditions to protect the detection beads from light. A lid was placed on top of the plate and incubated for 1 hour at room temperature, then the luminescence was read on a PerkinElmer Envision instrument. The concentration of each compound for 50% inhibition (IC50) was calculated by non-linear regression using XL Fit data analysis software.
The Raf/Mek Amplified Luminescence Proximity Homogeneous Assay described was used to generate the luminescence and mutant b-Raf(V600E) IC50 data for selected Raf Kinase Inhibitors shown in Table 1 above.

T1 sequence (P15056 whole entry V600E): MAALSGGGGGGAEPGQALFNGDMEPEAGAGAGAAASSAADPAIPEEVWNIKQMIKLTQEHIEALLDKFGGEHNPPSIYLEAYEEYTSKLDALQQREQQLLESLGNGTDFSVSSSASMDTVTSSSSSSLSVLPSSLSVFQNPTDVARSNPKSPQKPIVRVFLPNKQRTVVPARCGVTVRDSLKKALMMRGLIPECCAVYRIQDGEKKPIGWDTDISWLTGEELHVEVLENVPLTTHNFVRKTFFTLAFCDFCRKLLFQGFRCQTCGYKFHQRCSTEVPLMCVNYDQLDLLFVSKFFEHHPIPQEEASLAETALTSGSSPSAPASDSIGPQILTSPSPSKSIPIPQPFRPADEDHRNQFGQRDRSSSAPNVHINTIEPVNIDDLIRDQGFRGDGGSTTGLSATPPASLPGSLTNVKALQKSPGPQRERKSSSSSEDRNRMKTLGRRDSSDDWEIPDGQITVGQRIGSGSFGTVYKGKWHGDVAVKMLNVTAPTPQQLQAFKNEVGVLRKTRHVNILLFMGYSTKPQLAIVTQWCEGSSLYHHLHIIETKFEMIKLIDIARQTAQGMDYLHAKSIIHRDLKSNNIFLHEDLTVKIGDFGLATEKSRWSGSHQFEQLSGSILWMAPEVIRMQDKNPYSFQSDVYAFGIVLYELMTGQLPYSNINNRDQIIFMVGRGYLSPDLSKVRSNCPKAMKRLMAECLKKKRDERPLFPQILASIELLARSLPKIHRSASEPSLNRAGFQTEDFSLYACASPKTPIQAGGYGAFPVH

| IC50 | Structure (SMILES) |
| --- | --- |
| 0.0001 µM | COc1cc(-c2[nH]c(-c3ccccc3)nc2-c2ccnc(NCCNS(C)(=O)=O)n2)cnc1N [Compound 99, N-(2-(4-(5-(6-amino-5-methoxypyridin-3-yl)-2-phenyl-1H-imidazol-4-yl)pyrimidin-2-ylamino)ethyl)methanesul-fonamide] |
| 0.0259 µM | COCC(=O)N1CCC[C@@H](Nc2nccc(-c3nc(-c4ccc(F)cc4)[nH]c3-c3cnc(N)c(OC)c3)n2)C1 [Compound 100, (R)-1-(3-(4-(5-(6-amino-5-methoxypyridin-3-yl)-2-(4-fluorophenyl)-1H-imidazol-4-yl)pyrimidin-2-ylamino)piperidin-1-yl)-2-methoxyethanone] |
| 0.0013 µM | COC(=O)c1cccc(-c2nc(-c3ccncc3)c(-c3cnc(N)c(OC)c3)[nH]2)c1 [Compound 101, methyl 3-(5-(6-amino-5-methoxypyridin-3-yl)-4-(pyridin-4-yl)-1H-imidazol-2-yl)benzoate] |
| 0.0011 µM | COc1cc(-c2[nH]c(-c3cccc(C#N)c3)nc2-c2ccncc2)cnc1N [Compound 102, 3-(5-(6-amino-5-methoxypyridin-3-yl)-4-(pyridin-4-yl)-1H-imidazol-2-yl)benzonitrile] |
| 0.0007 µM | COC(=O)c1ccc(-c2nc(-c3ccncc3)c(-c3cnc(N)c(OC)c3)[nH]2)cc1 [Compound 103, methyl 4-(5-(6-amino-5-methoxypyridin-3-yl)-4-(pyridin-4-yl)-1H-imidazol-2-yl)benzoate] |
| 0.0014 µM | COc1cc(-c2[nH]c(-c3ccc(C#N)cc3)nc2-c2ccncc2)cnc1N [Compound 104, 4-(5-(6-amino-5-methoxypyridin-3-yl)-4-(pyridin-4-yl)-1H-imidazol-2-yl)benzonitrile] |
| 0.215 µM | CCc1cc(-c2[nH]c(-c3ccc(F)cc3)nc2-c2ccncc2)cnc1N [Compound 105, 3-ethyl-5-(2-(4-fluorophenyl)-4-(pyridin-4-yl)-1H-imidazol-5-yl)pyridin-2-amine] |
| 0.0007 µM | COc1ccc(-c2nc(-c3ccncc3)c(-c3cnc(N)c(OC)c3)[nH]2)cc1OC [Compound 107, 5-(2-(3,4-dimethoxyphenyl)-4-(pyridin-4-yl)-1H-imidazol-5-yl)-3-methoxypyridin-2-amine] |
| 0.0007 µM | COc1ccc(-c2nc(-c3ccncc3)c(-c3cnc(N)c(OC)c3)[nH]2)cc1F [Compound 108, 5-(2-(3-fluoro-4-methoxyphenyl)-4-(pyridin-4-yl)-1H-imidazo-5-yl)-3-methoxypyridin-2-amine] |
| 0.0012 µM | COc1cc(-c2[nH]c(-c3ccc(F)c(F)c3)nc2-c2ccncc2)cnc1N [Compound 109, 5-(2-(3,4-difluorophenyl)-4-(pyridin-4-yl)-1H-imidazol-5-yl)-3-methoxypyridin-2-amine] |
| 0.0005 µM | COc1cc(-c2[nH]c(-c3cccc(C)c3)nc2-c2ccncc2)cnc1N [Compound 110, 3-methoxy-5-(4-(pyridin-4-yl)-2-tolyl-1H-imidazol-5-yl)pyridin-2-amine] |
| 0.0292 µM | COc1cc(-c2nc(-c3ccc(F)cc3)[nH]c2-c2ccnc(F)c2)cnc1N [Compound 111, 5-(2-(4-fluorophenyl)-5-(2-fluoropyridin-4-yl)-1H-imidazol-4-yl)-3-methoxypyridin-2-amine] |
| 0.737 µM | COc1cc(-c2[nH]c(-c3ccc(F)cc3)nc2-c2cnc(N)c(OC)c2)ccn1 [Compound 112, 5-(2-(4-fluorophenyl)-5-(2-methoxypyridin-4-yl)-1H-imidazol-4-yl)-3-methoxypyridin-2-amine] |
| 0.0026 µM | COc1cc(-c2nc(C3=CCCCC3)[nH]c2-c2ccncc2)cnc1N [Compound 113, 5-(2-cyclohexenyl-5-(pyridin-4-yl)-1H-imidazol-4-yl)-3-methoxypyridin-2-amine] |
| 0.0064 µM | COc1cc(-c2[nH]c(-c3ccc(OCCN(C)C)cc3)nc2-c2ccncc2)cnc1N [Compound 114] |
| 0.003 µM | COc1cc(-c2[nH]c(-c3cccc(C(C)C)c3)nc2-c2ccncc2)cnc1N [Compound 115, 5-(2-(3-isopropylphenyl)-4-(pyridin-4-yl)-1H-imidazol-5-yl)-3-methoxypyridin-2-amine] |
| 0.0017 µM | COc1cc(-c2[nH]c(-c3cccc(OC)c3F)nc2-c2ccncc2)cnc1N [Compound 116, 5-(2-(2-fluoro-3-methoxyphenyl)-4-(pyridin-4-yl)-1H-imidazol-5-yl)-3-methoxypyridin-2-amine] |

| IC50 | Structure (SMILES) |
| --- | --- |
| 0.0007 µM | COc1cc(-c2[nH]c(-c3ccc(C)c(F)c3)nc2-c2ccncc2)cnc1N [Compound 117, 5-(2-(3-fluoro-4-methylphenyl)-4-(pyridin-4-yl)-1H-imidazol-5-yl)-3-methoxypyridin-2-amine] |
| 0.002 µM | COc1cc(-c2nc(C3CCCCC3)[nH]c2-c2ccncc2)cnc1N [Compound 118, 5-(2-cyclohexyl-5-(pyridin-4-yl)-1H-imidazol-4-yl)-3-methoxypyridin-2-amine] |
| 0.0019 µM | COc1cc(-c2nc(-c3ccn(C)n3)[nH]c2-c2ccncc2)cnc1N [Compound 119, 3-methoxy-5-(2-(1-methyl-1H-pyrazol-3-yl)-5-(pyridin-4-yl)-1H-imidazol-4-yl)pyridin-2-amine] |
| 0.0088 µM | COc1cc(-c2[nH]c(-c3cccc(S(C)(=O)=O)c3)nc2-c2ccncc2)cnc1N [Compound 120, 3-methoxy-5-(2-(3-(methylsulfonyl)phenyl)-4-(pyridin-4-yl)-1H-imidazol-5-yl)pyridin-2-amine] |
| 0.0017 µM | COc1cc(-c2[nH]c(-c3ccc(S(N)(=O)=O)cc3)nc2-c2ccncc2)cnc1N [Compound 121, 4-(5-(6-amino-5-methoxypyridin-3-yl)-4-(pyridin-4-yl)-1H-imidazol-2-yl)benzenesulfonamide] |
| 0.0021 µM | COc1cc(-c2[nH]c(-c3cccc(C(N)=O)c3)nc2-c2ccncc2)cnc1N [Compound 122, 3-(5-(6-amino-5-methoxypyridin-3-yl)-4-(pyridin-4-yl)-1H-imidazol-2-yl)benzamide] |
| 0.0166 µM | COc1cc(-c2[nH]c(-c3cc(C(=O)N(C)C)ccc3F)nc2-c2ccncc2)cnc1N [Compound 124, 3-(5-(6-amino-5-methoxypyridin-3-yl)-4-(pyridin-4-yl)-1H-imidazol-2-yl)-4-fluoro-N,N-dimethylbenzamide] |
| 0.0035 µM | COc1cc(-c2[nH]c(-c3ccc(C(N)=O)cc3)nc2-c2ccncc2)cnc1N [Compound 126, 4-(5-(6-amino-5-methoxypyridin-3-yl)-4-(pyridin-4-yl)-1H-imidazol-2-yl)benzamide] |
| 0.0018 µM | COc1cc(-c2nc(C3=CCCC3)[nH]c2-c2ccncc2)cnc1N [Compound 127, 5-(2-cyclopentenyl-5-(pyridin-4-yl)-1H-imidazol-4-yl)-3-methoxypyridin-2-amine] |
| 0.001 µM | COc1cc(-c2nc(C(C)(C)C)[nH]c2-c2ccncc2)cnc1N [Compound 128, 5-(2-tert-butyl-5-(pyridin-4-yl)-1H-imidazol-4-yl)-3-methoxypyridin-2-amine] |
| 0.0088 µM | COc1cc(-c2[nH]c(-c3ccc(F)cc3)nc2-c2ccnc3[nH]ccc23)cnc1N [Compound 129, 5-(2-(4-fluorophenyl)-4-(1H-pyrrolo[2,3-b]pyridin-4-yl)-1H-imidazol-5-yl)-3-methoxypyridin-2-amine] |
| 0.416 µM | Fc1ccc(-c2nc(-c3ccncc3)c(-c3ccc4ncnn4c3)[nH]2)cc1 [Compound 130, 6-(2-(4-fluorophenyl)-4-(pyridin-4-yl)-1H-imidazol-5-yl)-[1,2,4]triazolo[1,5-a]pyridine] |
| 0.174 µM | Nc1ncc(-c2[nH]c(-c3ccc(F)cc3)nc2-c2ccncc2)cc1F [Compound 131, 3-fluoro-5-(2-(4-fluorophenyl)-4-(pyridin-4-yl)-1H-imidazol-5-yl)pyridin-2-amine] |
| 0.001 µM | COc1cc(-c2[nH]c(-c3cccc(S(N)(=O)=O)c3)nc2-c2ccncc2)cnc1N [Compound 132, 3-(5-(6-amino-5-methoxypyridin-3-yl)-4-(pyridin-4-yl)-1H-imidazol-2-yl)benzenesulfonamide] |
| 0.0005 µM | COc1ccc(Cl)cc1-c1nc(-c2ccncc2)c(-c2cnc(N)c(OC)c2)[nH]1 [Compound 133, 5-(2-(5-chloro-2-methoxyphenyl)-4-(pyridin-4-yl)-1H-imidazol-5-yl)-3-methoxypyridin-2-amine] |
| 0.0014 µM | COc1cc(-c2[nH]c(-c3ccc(F)cc3)nc2-c2ccoc2)cnc1N [Compound 134, 5-(2-(4-fluorophenyl)-4-(furan-3-yl)-1H-imidazol-5-yl)-3-methoxypyridin-2-amine] |
